Several values for one entry are separate records, joined by “and”; a condition that tells them apart may be missing. Identical values can stand only once. Like-named read-outs stand apart in the source and are kept apart here.

The record followed here is patent US8741862B2, “PHD2 inhibition for blood vessel normalization, and uses thereof” (VIB VZW, priority 2009, dated 2014).

Data set [1] is described as follows: Cornea pocket assay with pellets containing VEGF or FGF-2. Type of data set: in vivo, mouse. The source says: We also performed cornea pocket assays and implanted pellets, containing VEGF or FGF-2, in endothelial PHD2Cre/+ mice.
Another data set has as its system B16 tumor. As to the kind of experiment: Response of B16 tumors to suboptimal cisplatin chemotherapy in WT and PHD2+/− mice. As to conditions: for anti-tumor effect in PHD2+/− mice / anti-tumor effect in WT mice: B16 tumor. Type of data set: in vivo, mouse. As to the method: […] TUMOR MODELS: 5 105 B16F10.9 melanoma and 105 Lewis lung carcinoma (LLC) cells were injected subcutaneously into the right flank or foot pad, respectively. […] Circulating tumor cells were scored on 1 ml of peripheral blood upon red blood cell lysis.
[…] […] The mice were sacrificed at defined time intervals after cell inoculation or when tumors reached a maximum size of 2 cm3.

Data set [2] relates to Lewis Lung Carcinoma (LLC). Nature of the data set: Response of LLC tumors to suboptimal doxorubicin chemotherapy in WT and PHD2+/− mice. As to conditions: doxorubicin 2.5 mg/kg 3×/week.
The mark [3] stands for this setting: cisplatin 2.5 mg/kg 3×/week, listed as Cisplatin.
Setting [4] is: PHD2+/− hearts upon doxorubicin treatment.
Setting [5] is: PHD2+/− hearts upon doxorubicin treatment, versus WT.

Consider “FGF-2: growth factor implanted as pellet in cornea pocket assay”, for which the “branching points per mm2” value in data set [1] (PHD2Cre/+ mice, N=4) is reported as 580±87 per mm2; in data set [1] (PHD2lox/+ mice, N=4), 511±48 per mm2. The same molecule yielded a vessel area in data set [1] (PHD2Cre/+ mice, N=4) of 33.4±4%.
In the case of VEGF, the vessel area in data set [1] (PHD2Cre/+ mice, N=4) amounted to 23.2±1.6%; in data set [1] (PHD2lox/+ mice, N=4) it was 27.7±2.3%. Also, the “branching points per mm2” value in data set [1] (mouse, in vivo) is 387±52 per mm2 and 345±60 per mm2.
Take `N.N.[Cl][Pt][Cl]` [cisplatin]: in the data set on B16 tumor (cisplatin 2.5 mg/kg 3×/week), the “anti-tumor effect in PHD2+/− mice” value is “effective” and the “anti-tumor effect in WT mice” value was “does not kill B16 tumor cells”. For the same molecule, in the data set on B16 tumor (setting [3]), the “anti-tumor effect in PHD2+/− mice” value was “reduced the volume (A) and weight (B) of B16 tumor”; the “anti-tumor effect in WT mice” value is “not effective”. The “tumor size, smaller in PHD2+/− than WT mice” value in the data set with B16 tumor (cisplatin 2.5 mg/kg 3×/week, B16 tumors, 11 days after initiation of chemotherapy) is given as 60%. For the same molecule, the “tumor apoptosis (active caspase 3)” value in the data set on B16 tumor (tumors implanted in PHD2+/− mice upon cisplatin treatment) is reported as “increased”. The tumor proliferation result in the data set on B16 tumor (tumors implanted in PHD2+/− mice upon cisplatin treatment, compared to WT) was “reduced”.
As for `COc1cccc2c1C(=O)c1c(O)c3c(c(O)c1C2=O)C[C@@](O)(C(=O)CO)C[C@@H]3O[C@H]1C[C@H](N)[C@H](O)[C@H](C)O1` [doxorubicin], the “anti-tumor effect in PHD2+/− mice” value in data set [2] is listed as “responsive”; in data set [2] (listed as Doxorubicin) it was “reduced the volume of LLC (Lewis lung carcinoma) tumor”. Further, in data set [2] (WT mice), the “anti-tumor effect in WT mice” value is given as “not effective”. In addition, the cardiac hypertrophy result (PHD1 and PHD3 deficient mice after 2 months of treatment) is “significant cardiac hypertrophy”. The capillary perfusion result is given as “preserved” under setting [4] and “not preserved” (WT hearts upon doxorubicin treatment). Under setting [4], the “oxidative stress (cardiac ROS)” value is reported as “reduced”. Besides, the “Brain Natriuretic Peptide (BNP) expression” value under setting [5] was “lower levels”. Moreover, the interstitial fibrosis entry under setting [5] is recorded as “reduced interstitial fibrosis”. Also, the “ejection fraction (EF)” value runs as follows: (PHD2+/− mice upon doxorubicin treatment) “maintain or preserve the baseline EF levels”; (wild-type mice upon doxorubicin treatment) “decreases”. Also, the cardiac damage entry (doxorubicin 2.5 mg/kg 3×/week for four weeks, PHD2+/− mice) is on record as “protected against cardiac damage”.
